Where two headings read alike, the source gives them in different places.
Tests used:
[1] = molecular target: T1, human cytoplasmic domain of IGF-1R (Homo sapiens, UniProt P08069); assay: Kinase IGF-1R test: inhibition of autophosphorylation of the enzyme (HTRF); assay type: biochemical; details: ATP 120 μM
T1 construct: The human cytoplasmic domain of IGF-1R was cloned by fusion with glutathione S-transferase (GST); made in house; host or cells: SF21 insect cells (baculovirus, pFastBac-GST)
Method: A) Experimental Protocol for the Kinase IGF-1R Test:
The inhibitory activity of the compounds on IGF1R is determined by measuring the inhibition of autophosphorylation of the enzyme using a time-resolved fluorescence test (HTRF). The human cytoplasmic domain of IGF-1R was cloned by fusion with glutathione S-transferase (GST) in the baculovirus expression vector pFastBac-GST. The protein is expressed in the SF21 cells and purified to about 80% homogeneity. For the enzymatic test, the test compound at 10 mM dissolved in DMSO is diluted in ⅓ steps in a 50 mM Hepes, pH 7.5, 5 mM MnCl2, 50 mM NaCl, 3% Glycerol, 0.025% Tween 20 buffer. To measure the inhibition, the successive dilutions of the compound are preincubated for 30 minutes and 90 minutes in the presence of 5 nM of enzyme, the final DMSO concentration not exceeding 1%. The enzymatic reaction is initiated to have a final ATP concentration of 120 μM, and is stopped after 5 minutes by addition of 100 mM Hepes, pH 7.0 buffer containing 0.4 M of potassium fluoride, 133 mM EDTA, 0.1% BSA, the XL665-labelled antibody anti-GST and the anti-phosphotyrosine antibody conjugated to europium cryptate Eu—K (Cis-Bio Int.). The characteristics of the two fluorophores, XL-665 and Eu—K, are available in G. Mathis et al., Anticancer Research, 1997, 17, pages 3011-3014. The energy transfer between the excited europium cryptate to the acceptor XL665 is proportional to the degree of autophosphorylation of IGF-1R. The specific long-lasting signal of XL-665 is measured in a GENios Pro TECAN plate counter. The inhibition of autophosphorylation of IGF-1R at time 30 minutes and 90 minutes with the test compounds of the invention is calculated relative to a 1% in DMSO control, whose activity is measured in the absence of compound. The curve representing the percentage of inhibition as a function of the log of the concentration is established to determine the concentration corresponding to 50% inhibition (IC50),

MEF-IGF1R cells = assay: Proliferation/viability of MEF-IGF1R (Thymidine [14C] incorporation); assay type: cell-based; details: rhIGF1 100 ng/mL, incubation 72 hours, read-out: Test C IC50
Method: C) Measurement of the Proliferation/Viability of MEF-IGF1R
Cell culture: the MEF-IGF1R cells (stable clone of cells transfected with the receptor hIGF-1R) are cultured at 37° C. under 5% CO2 in EMEM medium containing 10% FCS.
Test procedure: the cells are seeded at 5000 cells per well in 96-well Cytostar plates (Amersham) with 0.2 mL of EMEM culture medium at 37° C. for 18 hours. The cells are then washed twice with EMEM medium and left to culture without serum for 24 hours. The compounds are then added at various concentrations in the presence of rhIGF1 (100 ng/mL) and 0.1 μCi of Thymidine [^14C] (specific activity ˜50 mCi/mmol) to give 0.2 mL of volume per well. After incubation for 72 hours in the presence of the compound, at 37° C. under 5% CO2, the incorporation of Thymidine [^14C] is measured by counting the radioactivity on a Microbeta trilux counter (Perkin-Elmer). The IC50 is determined from 10 increasing concentrations of the compound.
(§1) (i) The tests are performed in duplicate and the mean of the two tests is calculated.
(§2) (ii) The value of the signal of the maximum response is calculated from the positive control: cells stimulated with IGF1 without compound.
(§3) (iii) Value of the signal of the minimum response is calculated from the negative control: cells not stimulated with IGF1 without compound.
(§4) (iv) By using these values as maximum (100%) and minimum (0%), respectively, the data were normalized so as to give a percentage of the maximum response.
(§5) (v) A curve of dose response is plotted and the IC50 (the concentration of which the compound induces a 50% decrease in the signal) of the compound is calculated by non-linear regression analysis.

IGF-1R in MCF7 cells = IGF-1R in MCF7 cells (Homo sapiens, UniProt P08069); assay: Autophosphorylation of IGF-1R in MCF7 cells after stimulation with IGF-1 (ELISA); assay type: cell-based; parameters: endogenous in cells; host or cells: MCF-7 cells; details: MCF-7 cells, compound added one hour before stimulation with IGF1; read-out: Test B IC50
Chain of IGF-1R in MCF7 cells (P08069 31-1367): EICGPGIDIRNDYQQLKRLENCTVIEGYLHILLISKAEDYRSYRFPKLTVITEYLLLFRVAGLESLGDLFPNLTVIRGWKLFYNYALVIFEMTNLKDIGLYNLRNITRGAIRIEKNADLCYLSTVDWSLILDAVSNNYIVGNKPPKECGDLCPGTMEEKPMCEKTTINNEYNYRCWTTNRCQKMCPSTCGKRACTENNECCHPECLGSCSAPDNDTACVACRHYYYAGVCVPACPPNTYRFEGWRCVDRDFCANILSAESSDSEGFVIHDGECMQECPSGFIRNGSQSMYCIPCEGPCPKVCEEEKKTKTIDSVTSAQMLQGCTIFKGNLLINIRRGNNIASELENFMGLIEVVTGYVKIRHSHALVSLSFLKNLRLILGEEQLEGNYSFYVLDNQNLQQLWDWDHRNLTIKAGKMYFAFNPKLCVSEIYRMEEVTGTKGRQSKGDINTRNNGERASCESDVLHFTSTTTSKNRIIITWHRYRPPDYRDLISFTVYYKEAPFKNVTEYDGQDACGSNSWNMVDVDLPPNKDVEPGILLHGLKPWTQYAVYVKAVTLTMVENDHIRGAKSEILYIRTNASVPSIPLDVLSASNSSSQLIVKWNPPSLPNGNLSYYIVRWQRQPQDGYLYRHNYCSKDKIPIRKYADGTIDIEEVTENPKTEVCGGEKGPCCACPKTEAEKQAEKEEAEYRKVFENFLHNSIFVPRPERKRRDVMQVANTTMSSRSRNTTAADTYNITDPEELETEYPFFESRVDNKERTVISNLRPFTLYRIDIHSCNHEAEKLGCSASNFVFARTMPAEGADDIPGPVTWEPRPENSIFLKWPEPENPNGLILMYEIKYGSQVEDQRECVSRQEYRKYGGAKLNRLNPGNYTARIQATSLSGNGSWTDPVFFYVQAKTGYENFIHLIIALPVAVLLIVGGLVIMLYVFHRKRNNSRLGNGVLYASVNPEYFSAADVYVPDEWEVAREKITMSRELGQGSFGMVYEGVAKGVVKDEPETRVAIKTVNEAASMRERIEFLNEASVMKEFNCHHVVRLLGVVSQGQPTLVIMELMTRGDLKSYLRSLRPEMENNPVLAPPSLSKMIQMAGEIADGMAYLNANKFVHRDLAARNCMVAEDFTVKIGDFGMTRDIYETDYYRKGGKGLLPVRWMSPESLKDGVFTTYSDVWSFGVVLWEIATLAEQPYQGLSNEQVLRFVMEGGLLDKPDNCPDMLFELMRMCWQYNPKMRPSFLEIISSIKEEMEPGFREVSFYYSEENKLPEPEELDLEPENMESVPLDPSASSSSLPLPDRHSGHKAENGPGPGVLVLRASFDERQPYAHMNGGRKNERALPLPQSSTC
Method: B) Measurement of the Autophosphorylation of IGF-1R in MCF7 Cells after Stimulation with IGF-1
Cell Culturing and Execution of the Test:
The autophosphorylation of IGF1R in the IGF1-induced cells is evaluated by means of an ELISA technique (Enzyme Linked ImmunoSorbent Assay). The MCF-7 are seeded at 60 000 cells per well in 6-well plates and incubated at 37° C., 5% CO2 in medium containing 10% serum. After one night in 10% serum, the cells are deprived of serum for 24 hours. The compounds are added to the medium one hour before stimulation with IGF1. After 10 minutes of stimulation with IGF1, the cells are lysed with a buffer (Hepes 50 mM pH 7.6, Triton X100 1%, orthovanadate 2 mM, protease inhibitor cocktail). The cell lysates are incubated on a 96-well plate precoated with an anti-IGF1R antibody, followed by incubation with an anti-phosphotyrosine antibody coupled to the enzyme peroxidase. The level of peroxidase activity (measured by OD with a luminescent substrate) reflects the phosphorylation status of the receptor.
as §1, §2, §3, §4, §5

[2] = preincubation 30 minutes with 5 nM enzyme, read-out: Test A 30′ IC50
[3] = preincubation 90 minutes with 5 nM enzyme, read-out: Test A 90′ IC50

T1 sequence (P08069 960-1367 limits assumed): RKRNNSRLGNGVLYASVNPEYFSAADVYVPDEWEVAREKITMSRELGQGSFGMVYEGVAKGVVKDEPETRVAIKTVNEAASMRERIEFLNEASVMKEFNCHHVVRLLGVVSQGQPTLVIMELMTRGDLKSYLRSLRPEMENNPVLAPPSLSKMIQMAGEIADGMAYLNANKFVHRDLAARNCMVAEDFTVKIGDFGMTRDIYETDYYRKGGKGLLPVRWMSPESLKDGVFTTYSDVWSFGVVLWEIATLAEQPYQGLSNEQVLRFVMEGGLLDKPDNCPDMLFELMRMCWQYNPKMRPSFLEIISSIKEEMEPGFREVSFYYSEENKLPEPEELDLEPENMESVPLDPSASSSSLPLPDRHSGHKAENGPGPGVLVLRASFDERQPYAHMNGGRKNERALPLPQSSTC

Compound	IC50 [1, 2]	IC50 (MEF-IGF1R cells)	IC50 (IGF-1R in MCF7 cells)	IC50 [1, 3]
CC1(C)C(=O)N(c2ccc(SC(F)(F)F)cc2)C(=O)N1Cc1ccnc(NC(=O)c2cc(Cl)cc(Cl)c2)c1 [Example 6, 3,5-dichloro-N-{4-[(5,5-dimethyl-2,4-dioxo-3-{4-[(trifluoromethyl)thio]phenyl}imidazolidin-1-yl)methyl]pyridin-2-yl}benzamide]	> 100 nM	< 10 nM	> 100 nM	
Cc1ccc(F)c(C(=O)Nc2cc(CN3C(=O)N(c4ccc(SC(F)(F)F)cc4)C(=O)C3(C)C)ccn2)c1Cl [Example 7, 2-chloro-N-{4-[(5,5-dimethyl-2,4-dioxo-3-{4-[(tri-fluoromethyl)thio]phenyl}imidazolidin-1-yl)methyl]pyridin-2-yl}-6-fluoro-3-methylbenzamide]	> 100 nM	10 to 100 nM	> 100 nM	10 to 100 nM
CN(C)C(=O)c1cccc(Nc2cc(CN3C(=O)N(c4ccc(SC(F)(F)F)cc4)C(=O)C3(C)C)ccn2)c1 [Example 8, 3-({4-[(5,5-dimethyl-2,4-dioxo-3-{4-[(trifluoro-methyl)thio]phenyl}imidazolidin-1-yl)methyl]pyridin-2-yl}amino)-N,N-dimethylbenzamide]	10 to 100 nM	10 to 100 nM	< 10 nM	< 10 nM
C[C@H](CO)Nc1nccc(CN2C(=O)N(c3ccc(S(=O)(=O)C(F)(F)F)cc3)C(=O)C2(C)C)n1 [Example 9, 1-[(2-{[(1R)-2-hydroxy-1-methylethyl]amino}-pyrimidin-4-yl)methyl]-5,5-dimethyl-3-{4-[(trifluoromethyl)-sulfonyl]phenyl}imidazolidine-2,4-dione]	> 100 nM	10 to 100 nM	> 100 nM	10 to 100 nM
CC1(C)C(=O)N(c2ccc(SC(F)(F)F)cc2)C(=O)N1Cc1ccnc(Nc2cccnc2)n1 [Example 11, 5,5-dimethyl-1-{[2-(pyridin-3-ylamino)pyrimidin-4-yl]methyl}-3-{4-[(trifluoromethyl)thio]phenyl}imidazolidine-2,4-dione]	10 to 100 nM	< 10 nM	< 10 nM	< 10 nM
CC1(C)C(=O)N(c2ccc(SC(F)(F)F)cc2)C(=O)N1Cc1ccnc(Nc2cncnc2)c1 [Example 14, 5,5-dimethyl-1-{[2-(pyrimidin-5-ylamino)pyridin-4-yl]methyl}-3-{4-[(trifluoromethyl)thio]phenyl}imidazolidine-2,4-dione]	> 100 nM	> 100 nM	> 100 nM	> 100 nM
CC1(C)C(=O)N(c2ccc(SC(F)(F)F)cc2)C(=O)N1Cc1ccnc(Nc2cncnc2)n1 [Example 15, 5,5-dimethyl-1-{[2-(pyrimidin-5-ylamino)pyrimidin-4-yl]methyl}-3-{4-[(trifluoromethyl)thio]phenyl}imidazolidine-2,4-dione]	10 to 100 nM	> 100 nM	10 to 100 nM	10 to 100 nM
CC1(C)C(=O)N(c2ccc(S(=O)(=O)C(F)(F)F)cc2)C(=O)N1Cc1ccnc(Nc2cncnc2)n1 [Example 16, 5,5-dimethyl-1-{[2-(pyrimidin-5-ylamino)pyrimidin-4-yl]methyl}-3-{4-[(trifluoromethyl)sulfonyl]phenyl}imidazolidine-2,4-dione]	10 to 100 nM	> 100 nM	10 to 100 nM	10 to 100 nM
CCOC(=O)Nc1cc(CN2C(=O)N(c3ccc(SC(F)(F)F)cc3)C(=O)C2(C)C)ccn1 [Example 18 Stage a), ethyl {4-[(5,5-dimethyl-2,4-dioxo-3-{4-[(trifluoromethyl)thio]phenyl}imidazolidin-1-yl)methyl]pyridin-2-yl}carbamate]	10 to 100 nM	10 to 100 nM	10 to 100 nM	10 to 100 nM
CC1(C)C(=O)N(c2ccc(SC(F)(F)F)cc2)C(=O)N1Cc1ccnc(NC(=O)NCCCN2CCCC2)c1 [Example 18, 1-{4-[(5,5-dimethyl-2,4-dioxo-3-{4-[(trifluoro-methyl)thio]phenyl}imidazolidin-1-yl)methyl]pyridin-2-yl}-3-(3-pyrrolidin-1-ylpropyl)urea]	10 to 100 nM	> 100 nM	10 to 100 nM	10 to 100 nM
CC1(C)C(=O)N(c2ccc(SC(F)(F)F)cc2)C(=O)N1Cc1ccnc(NC(=O)NC2CCCC2)c1 [Example 19, 1-cyclopentyl-3-{4-[(5,5-dimethyl-2,4-dioxo-3-{4-[(trifluoromethyl)thio]phenyl}imidazolidin-1-yl)methyl]pyridin-2-yl}urea]	10 to 100 nM	10 to 100 nM	< 10 nM	10 to 100 nM
CC1(C)C(=O)N(c2ccc(SC(F)(F)F)cc2)C(=O)N1Cc1ccnc(NC(=O)NCCN2CCCC2)c1 [Example 20, 1-{4-[(5,5-dimethyl-2,4-dioxo-3-{4-[(trifluoro-methyl)thio]phenyl}imidazolidin-1-yl)methyl]pyridin-2-yl}-3-(2-pyrrolidin-1-ylethyl)urea]	> 100 nM	> 100 nM	> 100 nM	> 100 nM
CC1(C)C(=O)N(c2ccc(SC(F)(F)F)cc2)C(=O)N1Cc1ccnc(NC(=O)NCCCCN2CCCC2)c1 [Example 21, 1-{4-[(5,5-dimethyl-2,4-dioxo-3-{4-[(trifluoro-methyl)thio]phenyl}imidazolidin-1-yl)methyl]pyridin-2-yl}-3-(4-pyrrolidin-1-ylbutyl)urea]	10 to 100 nM	> 100 nM	10 to 100 nM	10 to 100 nM
CC1(C)C(=O)N(c2ccc(SC(F)(F)F)cc2)C(=O)N1Cc1ccnc(NC(=O)NC2CC2)c1 [Example 22, 1-cyclopropyl-3-{4-[(5,5-dimethyl-2,4-dioxo-3-{4-[(trifluoromethyl)thio]phenyl}imidazolidin-1-yl)methyl]pyridin-2-yl}urea]	10 to 100 nM	10 to 100 nM	10 to 100 nM	10 to 100 nM
CC1(C)C(=O)N(c2ccc(SC(F)(F)F)cc2)C(=O)N1Cc1ccnc(NC(=O)NC2CCC2)c1 [Example 23, 1-cyclobutyl-3-{4-[(5,5-dimethyl-2,4-dioxo-3-{4-[(trifluoromethyl)thio]phenyl}imidazolidin-1-yl)methyl]pyridin-2-yl}urea]	10 to 100 nM	10 to 100 nM	10 to 100 nM	10 to 100 nM

Reference: patent US20090082329A1 (AVENTIS PHARMA S.A., priority 2006, published 2009)
